Results as given in article PMC9450471 (Computational Biology and Chemistry, 2022).
“And” between values parts separate entries of the source, which are not always exact repeats. Equal values may be shown once. Read-outs that look alike come from different tables or passages of the source.

Tested on: SARS-CoV-2 (Omicron variant, B.1.1.529/BA.5 sublineage)
Format: cell-based
Conditions: for time at which utmost effectiveness against the Omicron variant is reached: after administration/treatment starter

With `O=c1[nH]cnc2c([C@@H]3N[C@H](CO)[C@@H](O)[C@H]3O)c[nH]c12` [Forodesine] the “100% CPE Inhibitory Concentration (CPEIC100)” value was 1.6 ± 0.065 µM, the “time at which utmost effectiveness against the Omicron variant is reached” value was 3.5 to 9.5 h and the “100% CPE Inhibitory Concentration (CPEIC100)” value (listed as forodesine) was 1.6 µM.
In the case of `CC(C)Nc1nc2cc(Cl)c(Cl)cc2n1[C@H]1O[C@@H](CO)[C@H](O)[C@@H]1O` [Maribavir], the “100% CPE Inhibitory Concentration (CPEIC100)” value is reported as 7.986 ± 0.277 µM.
`CC(C)C(=O)OC[C@H]1O[C@@H](n2ccc(NO)nc2=O)[C@H](O)[C@@H]1O` [Molnupiravir] was tested, and the “100% CPE Inhibitory Concentration (CPEIC100)” value was 6.19 ± 0.275 µM and the “100% CPE Inhibitory Concentration (CPEIC100)” value (listed as molnupiravir) was 6.19 µM.
In the case of `COc1nc(N)nc2c1ncn2[C@@H]1O[C@H](CO)[C@@H](O)[C@@H]1O` [Nelarabine], the “100% CPE Inhibitory Concentration (CPEIC100)” value is reported as 4.105 ± 0.149 µM.
For `CCC(CC)COC(=O)[C@H](C)N[P@](=O)(OC[C@H]1O[C@@](C#N)(c2ccc3c(N)ncnn23)[C@H](O)[C@@H]1O)Oc1ccccc1` [Remdesivir], the “100% CPE Inhibitory Concentration (CPEIC100)” value was 5.883 ± 0.255 µM and the “100% CPE Inhibitory Concentration (CPEIC100)” value (listed as remdesivir) was 5.883 µM.
With `CC(C)=CCNc1ncnc2c1ncn2[C@@H]1O[C@H](CO)[C@@H](O)[C@H]1O` [Riboprine, N ^6-(2-Isopentenyl)adenosine] the “100% CPE Inhibitory Concentration (CPEIC100)” value was 1.11 µM and 1.11 ± 0.047 µM and the “time at which utmost effectiveness against the Omicron variant is reached” value was 3.5 to 9.5 h.
With `OC[C@H]1O[C@@H](n2cnc3c(N[C@@H]4CCOC4)ncnc32)[C@H](O)[C@@H]1O` [Tecadenoson] the “100% CPE Inhibitory Concentration (CPEIC100)” value was 7.645 ± 0.24 µM.
For `Nc1ncnc2c1ncn2[C@@H]1O[C@H](CO)[C@@H](O)[C@@H]1O` [Vidarabine, Arabinosyladenine], the “100% CPE Inhibitory Concentration (CPEIC100)” value was 8.042 ± 0.288 µM.
